The subject of series [1] is HOP62. As to conditions: HOP62 transfected with Gli1 (efficiency approximately 25%) compared with HOP62 expressing an insertless expression vector. The source says:
Results from DTP analysis of the NCI-60 screen were independently validated with each cell line to determine which NSCLC cell lines required Hedgehog activity to proliferate.

The test system of another series is 786-0. Kind of series: NCI-60 panel screen, growth inhibition. Format: cell-based, human. As to conditions: Renal. The source says: (§1) The NCI-60 panel of cell lines includes cells derived from melanoma, leukemia, and cancers of the lung, central nervous system, kidney, ovary, colon, breast and prostate. Advantageously, the NCI-60 panel has been screened with a plurality of compounds with the drug concentration resulting in 50% growth inhibition (GI50 determined for each cell line, so that a distinct “fingerprint” signature has been created for each small-molecule tested. Further, DNA microarray analyses have been performed on the NCI-60 panel, allowing for gene expression profile comparisons between drug-sensitive cell lines and drug-insensitive cell lines in response to a particular agent.
(§2) Results from the NCI-60 panel screen highlighted the important role that the Hedgehog pathway plays in breast and prostate cancer (Table 1). […] These findings underscore the broad importance of Hedgehog signaling in carcinogenesis.

A further series concerns A549. Description: NCI-60 panel screen, growth inhibition. As to conditions: NSCLC. Format: cell-based, human.
Text: as §1, §2

The next series relates to ACHN. Description: NCI-60 panel screen, growth inhibition. Format: cell-based, human. As to conditions: Renal.
Text: as §1, §2

The subject of another series is BT-549. Description: NCI-60 panel screen, growth inhibition. Format: cell-based, human. As to conditions: Breast.
Text: as §1, §2

A further series relates to CAKI-1. Kind of series: NCI-60 panel screen, growth inhibition. Format: cell-based, human. As to conditions: Renal.
Text: as §1, §2

A further series concerns COLO 205. Kind of series: NCI-60 panel screen, growth inhibition. Format: cell-based, human. As to conditions: Colon.
Text: as §1, §2

Another series relates to DU-145. Description: NCI-60 panel screen, growth inhibition. Format: cell-based, human. As to conditions: Prostate.
Text: as §1, §2

The next series has as its system EKVX. Kind of series: NCI-60 panel screen, growth inhibition. Format: cell-based, human. As to conditions: NSCLC.
Text: as §1, §2

In a further series the test system is HCT-116. Description: NCI-60 panel screen, growth inhibition. Format: cell-based, human. As to conditions: Colon.
Text: as §1, §2

Another series has as its system HCT-15. Kind of series: NCI-60 panel screen, growth inhibition. Format: cell-based, human. As to conditions: Colon.
Text: as §1, §2

The next series deals with HL-60. Description: NCI-60 panel screen, growth inhibition. Format: cell-based, human. As to conditions: Leukemia.
Text: as §1, §2

In series [2] the test system is HOP62. Kind of series: NCI-60 panel screen, growth inhibition. Format: cell-based, human. As to conditions: NSCLC.
Text: as §1, §2

The next series relates to HS 578T. Description: NCI-60 panel screen, growth inhibition. As to conditions: Breast. Format: cell-based, human.
Text: as §1, §2

The next series has as its system HT29. Kind of series: NCI-60 panel screen, growth inhibition. Format: cell-based, human. As to conditions: Colon.
Text: as §1, §2

Another series relates to IGROV1. Kind of series: NCI-60 panel screen, growth inhibition. Format: cell-based, human. As to conditions: Ovarian.
Text: as §1, §2

Another series relates to K-562. Kind of series: NCI-60 panel screen, growth inhibition. Format: cell-based, human. As to conditions: Leukemia.
Text: as §1, §2

The test system of a further series is KM12. Description: NCI-60 panel screen, growth inhibition. Format: cell-based, human. As to conditions: Colon.
Text: as §1, §2

The subject of the next series is LOX IMVI. Description: NCI-60 panel screen, growth inhibition. Format: cell-based, human. As to conditions: Melanoma.
Text: as §1, §2

A further series concerns MCF7. Kind of series: NCI-60 panel screen, growth inhibition. As to conditions: Breast. Format: cell-based, human.
Text: as §1, §2

In a further series the test system is MDA MB-435. Description: NCI-60 panel screen, growth inhibition. Format: cell-based, human. As to conditions: Breast.
Text: as §1, §2

For a further series, the system named is MDA-MB-231/ATCC. Description: NCI-60 panel screen, growth inhibition. Format: cell-based, human. As to conditions: Breast.
Text: as §1, §2

For the next series, the system named is MOLT-4. Description: NCI-60 panel screen, growth inhibition. Format: cell-based, human. As to conditions: Leukemia.
Text: as §1, §2

A further series has as its system NCI-H226. Description: NCI-60 panel screen, growth inhibition. As to conditions: NSCLC. Format: cell-based, human.
Text: as §1, §2

The next series has as its system NCI-H23. Kind of series: NCI-60 panel screen, growth inhibition. Format: cell-based, human. As to conditions: NSCLC.
Text: as §1, §2

The test system of the next series is NCI-H322M. Description: NCI-60 panel screen, growth inhibition. Format: cell-based, human. As to conditions: NSCLC.
Text: as §1, §2

Another series has as its system NCI-H460. Kind of series: NCI-60 panel screen, growth inhibition. Format: cell-based, human. As to conditions: NSCLC.
Text: as §1, §2

A further series concerns NCI-H522. Kind of series: NCI-60 panel screen, growth inhibition. Format: cell-based, human. As to conditions: NSCLC.
Text: as §1, §2

The test system of another series is NCI/ADR-RES. Description: NCI-60 panel screen, growth inhibition. Format: cell-based, human. As to conditions: Breast.
Text: as §1, §2

In another series the test system is OVCAR-5. Description: NCI-60 panel screen, growth inhibition. Format: cell-based, human. As to conditions: Ovarian.
Text: as §1, §2

In the next series the test system is OVCAR-8. Description: NCI-60 panel screen, growth inhibition. Format: cell-based, human. As to conditions: Ovarian.
Text: as §1, §2

The next series concerns PC-3. Kind of series: NCI-60 panel screen, growth inhibition. As to conditions: Prostate. Format: cell-based, human.
Text: as §1, §2

The next series relates to RPMI-8226. Description: NCI-60 panel screen, growth inhibition. Format: cell-based, human. As to conditions: Leukemia.
Text: as §1, §2

The test system of another series is RXF 393. Description: NCI-60 panel screen, growth inhibition. Format: cell-based, human. As to conditions: Renal.
Text: as §1, §2

In a further series the test system is SF-268. Description: NCI-60 panel screen, growth inhibition. Format: cell-based, human. As to conditions: Central Nervous System.
Text: as §1, §2

Another series concerns SF-295. Description: NCI-60 panel screen, growth inhibition. Format: cell-based, human. As to conditions: Central Nervous System.
Text: as §1, §2

A further series relates to SF-539. Description: NCI-60 panel screen, growth inhibition. Format: cell-based, human. As to conditions: Central Nervous System.
Text: as §1, §2

For the next series, the system named is SK-MEL-28. Kind of series: NCI-60 panel screen, growth inhibition. Format: cell-based, human. As to conditions: Melanoma.
Text: as §1, §2

The test system of another series is SK-MEL-2. Kind of series: NCI-60 panel screen, growth inhibition. Format: cell-based, human. As to conditions: Melanoma.
Text: as §1, §2

Another series has as its system SK-MEL-5. Description: NCI-60 panel screen, growth inhibition. As to conditions: Melanoma. Format: cell-based, human.
Text: as §1, §2

Another series concerns SN12C. Description: NCI-60 panel screen, growth inhibition. As to conditions: Renal. Format: cell-based, human.
Text: as §1, §2

A further series has as its system SNB-19. Description: NCI-60 panel screen, growth inhibition. Format: cell-based, human. As to conditions: Central Nervous System.
Text: as §1, §2

The test system of a further series is SNB-75. Kind of series: NCI-60 panel screen, growth inhibition. As to conditions: Central Nervous System. Format: cell-based, human.
Text: as §1, §2

Another series deals with SR. Description: NCI-60 panel screen, growth inhibition. Format: cell-based, human. As to conditions: Leukemia.
Text: as §1, §2

In the next series the test system is SW-620. Description: NCI-60 panel screen, growth inhibition. As to conditions: Colon. Format: cell-based, human.
Text: as §1, §2

In another series the test system is TK-10. Kind of series: NCI-60 panel screen, growth inhibition. Format: cell-based, human. As to conditions: Renal.
Text: as §1, §2

Another series has as its system U251. Kind of series: NCI-60 panel screen, growth inhibition. As to conditions: Central Nervous System. Format: cell-based, human.
Text: as §1, §2

A further series has as its system UACC-257. Description: NCI-60 panel screen, growth inhibition. As to conditions: Melanoma. Format: cell-based, human.
Text: as §1, §2

The next series deals with UACC-62. Description: NCI-60 panel screen, growth inhibition. Format: cell-based, human. As to conditions: Melanoma.
Text: as §1, §2

A further series has as its system UO-31. Kind of series: NCI-60 panel screen, growth inhibition. Format: cell-based, human. As to conditions: Renal.
Text: as §1, §2

The next series concerns Gli1. Kind of series: Gli1 knock-down by siRNA in A549 cells. Format: cell-based, human. As to conditions: A549 cells transfected with siRNA.

For `CC1=C2C[C@H]3[C@@H](CC=C4C[C@@H](O)CC[C@@]43C)[C@@H]2CC[C@]12O[C@@H]1C[C@H](C)CN[C@H]1[C@H]2C` [Cyclopamine, cyclopamine], the “Growth inhibitory activity in Gli1-transfected cells versus insertless expression vector” value with HOP62 [1] is reported as “less growth inhibitory activity”.
In the case of `Cc1nn(-c2ccccc2)c(C)c1/C=N/N1CCN(Cc2ccccc2)CC1` [SANT1], the “−log [GI50]” value with 786-0 stood at 4.64; in the series on A549, 4.00; in the series on ACHN, 4.28; in the series on BT-549 it was 4.32; in the series on CAKI-1 it was 4.00; in the series with COLO 205, 4.39. For the same compound, the “−log [GI50]” value in the series with DU-145 stood at 4.02; in the series with EKVX it was 4.00; in the series with HCT-116, 4.55; in the series on HCT-15, 4.52; in the series on HL-60, 4.54; in the series on HOP62 [2], 4.79. For the same compound, the “−log [GI50]” value in the series with HS 578T was 4.00; in the series on HT29 it was 4.37; in the series on IGROV1, 5.08; in the series with K-562, 4.51; in the series with KM12, 4.50; in the series on LOX IMVI it was 4.36. Also, the “−log [GI50]” value with MCF7 turned out to be 4.51; in the series on MDA MB-435 it was 4.00; in the series on MDA-MB-231/ATCC, 4.65; in the series on MOLT-4, 4.57; in the series with NCI-H226 it was 4.56; with NCI-H23 it was 4.38. Further, the “−log [GI50]” value is 5.08 in the series with NCI-H322M; 4.47 in the series with NCI-H460; 4.11 in the series with NCI-H522; 4.30 with NCI/ADR-RES; 4.00 in the series with OVCAR-5; 4.00 with OVCAR-8. The “−log [GI50]” value is listed as 4.60 with PC-3; 4.70 with RPMI-8226; 4.00 in the series on RXF 393; 4.42 in the series on SF-268; 4.00 with SF-295; 4.12 with SF-539. The “−log [GI50]” value is 4.09 in the series on SK-MEL-28; 4.22 in the series on SK-MEL-2; 4.73 in the series with SK-MEL-5; 4.00 in the series with SN12C; 4.00 in the series with SNB-19; 4.00 with SNB-75. Further, the “−log [GI50]” value is listed as 4.86 with SR; 4.00 in the series on SW-620; 4.54 in the series with TK-10; 4.17 in the series with U251; 4.20 in the series on UACC-257; 4.47 with UACC-62. Also, the “−log [GI50]” value in the series with UO-31 was 4.18.
In the case of “SEQ ID NO:9: siRNA having the desired Gli1 knock-down activity (Sanchez, et al. (2004)) (AACUCCACAGGCAUACAGGAU; chemistry not given here)”, the “Reduction of Gli1 levels” value with Gli1 is given as “approximately 90%”.

Values taken from patent US8273701B2, “Method for diagnosing non-small cell lung carcinoma” (Trustees of Dartmouth College, priority 2005, dated 2012).
